The nature of the series: Toxicity (LD50). The settings on record: in vivo.

Here are results for one compound from patent publication US20190060337A1, “COMPOSITIONS COMPRISING BETA-GLUCOGALLIN AND THERAPEUTIC APPLICATIONS THEREOF IN CONTROLLED KINETICS OF CARBOHYDRATE BREAKDOWN AND MONOSACCHARIDE ABSORPTION” (priority 2017, published 2019).

The structures appear in SMILES notation.

For `O=C(O[C@@H]1O[C@H](CO)[C@@H](O)[C@H](O)[C@H]1O)c1cc(O)c(O)c(O)c1` [β-glucogallin, 1-O-galloyl-β-D-glucose], the LD50 result is given as “approx. 2000 mg/kg bodyweight”.
